This is an account of results in the METLIN SMRT retention time set (Domingo-Almenara et al. 2019).

SMILES strings stand for the structures.

A short description of the data set: gradient 5% acetonitrile 3 min, to 50% in 2 min, to 85% in 15 min, held 3 min, 100 µL/min. The conditions noted are these: column: Zorbax Extend-C18 2.1 x 50 mm; eluents: water / acetonitrile, 0.1% formic acid. In a few lines: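 Data were gathered over 3 months by HPLC coupled to a quadrupole time-of-flight mass spectrometer, operated in positive and negative ionization mode. Mixtures of ~100 pure standards ran on a Zorbax Extend-C18 column (2.1 × 50 mm, 1.8 μm) at 100 μL/min, with water and acetonitrile each containing 0.1% formic acid and dead and dwell volumes of 40 μL and 900 μL. Retention time was read from adduct peaks picked by computer and checked manually.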
Turning to `COc1ccc(OC)c(CNC(=O)c2nnc(-c3ccc(S(=O)(=O)N(C)C)cc3)o2)c1`, the RP-LC retention time is 854 s. Molecule `CC1CCCC(NC(=O)Cn2cnc3c(nc4n3CCCCC4)c2=O)C1C` (stereo unspecified) gave an RP-LC retention time of 711 s. In the case of `Cn1nc(C(=O)N2CCOCC2)c2c1CCN(C(=O)Nc1cccc(Br)c1)C2`, the RP-LC retention time was 726 s. To `CCOC(=O)C1=C(C)NC2=C(C(=O)C(C(=O)OC)C(C)C2)C1c1ccc(F)cc1` (stereo unspecified) belongs 870 s. To `O=C(Nc1ccc(Br)cc1F)C1CCN(S(=O)(=O)Cc2ccccc2)CC1` belongs 1000 s; to `O=C(CSCC(=O)N1CCOCC1)Nc1nc(-c2ccc3c(c2)OCO3)cs1`, 681 s; to `CCc1noc(-c2ccc(SCC(=O)N3CCCCCC3)nc2)n1`, 939 s. `Cc1ccc(Cn2c(CCCC(=O)N3CCN(c4ncccn4)CC3)nc3cccnc32)cc1`: the RP-LC retention time worked out at 744 s.

`Cc1ccccc1CNC(=O)C1CCN(S(C)(=O)=O)c2cc(Cl)ccc2O1` (stereo unspecified) displayed an RP-LC retention time of 975 s. `COc1ccc(-c2nnc(-c3ccc(Cl)c(S(=O)(=O)N(C)C)c3)o2)cc1` displayed an RP-LC retention time of 913 s. Take `O=C(Nc1cnc(N2CCCCC2)nc1)c1cccs1`: the RP-LC retention time amounted to 842 s. To `CCOC(=O)c1ccc(NC(=O)Cn2nc3n(c2=O)CCCC3)cc1` belongs 676 s; to `CCCN(CC1CCOC1)C(=O)Nc1ccc(Cl)cc1C` (stereo unspecified), 639 s. For `O=C(Nc1ccc(OCC(=O)N2CCN(c3ccccn3)CC2)nc1)C1CC1`, the RP-LC retention time was 580 s.

Regarding `COc1ccc(-c2nccn3cc(C(=O)O)nc23)cc1`, the RP-LC retention time was found to be 672 s.

Regarding `COC(=O)c1nnn(-c2cc(Cl)ccc2OC)c1C(=O)OC`, the RP-LC retention time is 898 s. To `COc1cccc(CCC(=O)Nc2cnn(-c3ncc(N4CCCC4)cn3)c2)c1` belongs 829 s; to `CC(=O)c1cccc(NC(=O)c2cccc3ccccc23)c1`, 840 s; to `CCOc1ccccc1NC(=O)c1cn2c(n1)CCCC2`, 657 s. The same measure for `O=C(Nc1ccc2nc3n(c(=O)c2c1)CCCCC3)C(=O)N1CCCCCC1`: 729 s.

`CS(=O)(=O)N1CCC(C(=O)Nc2cccc(C(F)(F)F)c2)Oc2ccccc21` (stereo unspecified) gave an RP-LC retention time of 972 s. To `Cc1oc(-c2[nH]ncc2C(=O)N(C)C)cc1S(=O)(=O)NCc1cccnc1` belongs 559 s; to `Cc1ccc2nc(-c3cccc(Br)c3)c(C)c(C(=O)O)c2c1`, 694 s; to `Cc1cccc(N2CC(C(=O)N(C)C)CC2=O)c1` (stereo unspecified), 660 s. To `Cc1ccc(Cl)cc1NC(=O)C1CCCN(c2nc3ccccc3nc2C(F)(F)F)C1` (stereo unspecified) belongs 1350 s; to `CCOc1ccc(CNC(=S)Nc2ccc3nc(N4CCN(C)CC4)cc(C)c3c2)cc1`, 614 s; to `COc1cc(CNC(=O)c2cccc3c2CCN3C(=O)C2CC2)cc(OC)c1`, 809 s. To `O=C(NCc1ccccn1)C1CCN(S(=O)(=O)c2cc(C(=O)N3CCCC3)cs2)CC1` belongs 609 s; to `CCC(=O)N1CCc2cc(C(=O)NCc3ccc(C)o3)ccc21`, 757 s.

Take `Nc1cc(C2CCN(C(=O)Nc3cc(F)c(F)c(F)c3)CC2)no1`: the RP-LC retention time is 765 s. Consider `Cn1cc(-c2ccc(F)cc2)cc1C(=O)N1CCOCC1`, for which the RP-LC retention time worked out at 811 s. To `COc1ccc(CNC(=O)C2(C)Cn3nc(C)cc3C(=O)N2c2ccc(F)cc2)cc1` (stereo unspecified) belongs 764 s. The same measure for `O=C(COc1ccc(Cl)cc1)N1CC(n2cnnc2C2CC2)C1`: 675 s; for `COc1ccc(N2CC(c3nc4ccccc4n3CCN3CCOCC3)CC2=O)cc1` (stereo unspecified): 600 s; for `Cc1ccc(-c2cn3c(CC(=O)Nc4ccc5c(c4)OCCO5)csc3n2)cc1C`: 806 s. `Cc1ccc(NS(=O)(=O)c2cc(-c3nc(C(C)(C)C)cs3)cs2)cc1` returned an RP-LC retention time of 1210 s. Turning to `CCOC(=O)COc1cc(-c2ccc(C)cc2)nc2ccc(NC(=O)C3CC3)cc12`, the RP-LC retention time turned out to be 776 s. `CCN1c2ccccc2C(=O)NC12CCN(C(=O)c1ccc(C)cc1)CC2`: the RP-LC retention time was determined as 804 s.

`CCc1ccc(NC(=O)N2CCc3nc(-c4ccc(Cl)cc4)ncc3C2)cc1` returned an RP-LC retention time of 1150 s. `Cc1ccc(CNS(=O)(=O)c2c(C)nc3sc(C)nn23)o1` came in with an RP-LC retention time of 710 s. To `O=C(CN1C(=O)C(C(=O)N2CCCCC2)Sc2ccccc21)NC1CCCCCC1` (stereo unspecified) belongs 1090 s. Molecule `CC(C)CC(=O)Nc1ccc(S(=O)(=O)N2CCCC2c2nc(-c3ccccc3)no2)cc1` (stereo unspecified) registered an RP-LC retention time of 1080 s. To `O=C(Nc1cccc(Cl)c1)Nc1ccc2nc3n(c(=O)c2c1)CCCC3` belongs 723 s. `Cc1cccc(N2C(=O)CN(Cc3ccccc3C)[C@H]3CS(=O)(=O)C[C@H]32)c1`: the RP-LC retention time turned out to be 872 s. In turn, `CNC(=O)c1n[nH]c2c1CC(C(C)(C)C)CC2` (stereo unspecified) gave an RP-LC retention time of 786 s.

For the molecule `COCC(C)NC(=O)c1cc2c(s1)N(CC(C)C)CCCC2` (stereo unspecified), the RP-LC retention time came out at 1080 s.

On to `O=C(Cc1ccsc1)N1CCc2nn(CC3CC3)c(=O)n2CC1`, for which the RP-LC retention time was 674 s. To `Clc1ccc(-c2ccc(CNCC3CCCO3)o2)cc1` (stereo unspecified) belongs 688 s.

`CC1CCN(C(=O)c2ccccc2OCC2CCCN(C3CCCC3)C2)CC1` (stereo unspecified) returned an RP-LC retention time of 696 s.

`CS(=O)(=O)N(Cc1cccnc1)C1CN(Cc2ccc(F)c(F)c2)C1` showed an RP-LC retention time of 571 s. The same measure for `O=C(Cc1ccccc1Br)Nc1cc(-c2cccs2)no1`: 973 s. Consider `O=C(NCc1nnnn1-c1ccc(F)c(F)c1)c1cc(=O)c2ccccc2o1`, for which the RP-LC retention time amounted to 707 s. `CCCNC(=O)C1CCN(c2ccc(SCC(=O)Nc3ccc(OC)c(Cl)c3)nn2)CC1` came in with an RP-LC retention time of 654 s. `COc1ccc(N2CCN(C(=O)C3(CCO)CC34CCOCC4)CC2)cc1` (stereo unspecified) gave an RP-LC retention time of 628 s.

`CCc1cc(C(=O)Nc2ccccc2)nc2ccnn12` came in with an RP-LC retention time of 960 s.

In turn, `CCN(CC)C(=O)c1ccc2c(c1)N(CC(=O)N1CCN(c3ccccn3)CC1)C(=O)CS2` displayed an RP-LC retention time of 598 s. To `COCCCNC(=O)C1(C)Cn2nc(-c3ccccc3)cc2C(=O)N1Cc1cc(OC)ccc1OC` (stereo unspecified) belongs 903 s; to `COC(=O)CNC(=O)N1c2ccccc2CC1c1nc(C(C)C)no1` (stereo unspecified), 834 s.

For `COC1C(=O)N(CC2CC2)C12CCN(C(=O)C1CC1)CC2` (stereo unspecified), the RP-LC retention time stood at 639 s.

With `O=C(Cn1c(=O)c2cccn2c2ccc(F)cc21)NCCC1=CCCCC1`, the RP-LC retention time came to 952 s. Consider `CN1CCN(CCCNC(=O)c2cc3occc3c(Nc3ccc(F)cc3)n2)CC1`, for which the RP-LC retention time is 616 s.
